How the values were obtained:
kale 'Red Russian' [1] = test: Visual injury of kale after insecticide, fungicide, PGRs, safeners (Example 4)
Protocol: (§1) Greenhouse and laboratory studies were conducted to ascertain the tolerance and nutritional quality differences following postemergence applications of the insecticide chlorpyrifos, the fungicide chlorothalonil, the PGRs mepiquat-chloride and paclobutrazol, and the safeners napthalic anhydride and isoxadifen-ethyl on kale ‘Red Russian’ and basil ‘Genovese’. Visual injury was rated based on general phytotoxicity, chlorosis, and visual stunting and each measurement was based on a percent scale from 0 to 100 where 0 equals no visual response and 100 equals complete plant death. Kale and basil were both harvested approximately 4 weeks after treatments and plants were pooled over replicates for content analysis of crude protein, crude amino acid content, acid detergent fiber, neutral detergent fiber, total fatty acids, and/or key mineral content (including Na, Ca, P, Mg, K, Fe, Mn, Zn, and Cu). In addition, the amounts of key individual amino acids (aspartic acid, threonine, glutamic acid, proline, glycine, cysteine, valine, leucine, isoleucine, methionine, and lysine) and composite classifications of fatty acid (saturated fatty acids, monounsaturated fatty acids, polyunsaturated fatty acids) were also analyzed from these sub-samples for kale (Tables 10-14).

basil 'Genovese' = test: Visual injury of basil after insecticide, fungicide, PGRs, safeners (Example 4)
Protocol: as §1

kale ‘Red Russian’ = test: Yield, fresh weight of kale after insecticide, fungicide and PGRs (Example 4, Table 12); format: in vivo; conditions: 28 DA-A, Untreated Check 106.9
Protocol: as §1

kale 'Red Russian' [2] = test: Content analysis of kale: protein, amino acids, fiber, fatty acids, minerals (Example 4, Tables 12-14); format: in vivo; conditions: 28 DA-A
Protocol: as §1

[3] = 7 DA-A, rates g ai/ha: chlropyrifos 1120, chlorothalonil 2630, paclobutrazol 3.23, mepiquat-chloride 12.3, + NIS 0.25 % v/v
[4] = 7 DA-A, rates g ai/ha: chlropyrifos 3370, chlorothalonil 7900, paclobutrazol 9.7, mepiquat-chloride 37, + NIS 0.25 % v/v
[5] = 14 DA-A, rates g ai/ha: chlropyrifos 1120, chlorothalonil 2630, paclobutrazol 3.23, mepiquat-chloride 12.3, + NIS 0.25 % v/v
[6] = 14 DA-A, rates g ai/ha: chlropyrifos 3370, chlorothalonil 7900, paclobutrazol 9.7, mepiquat-chloride 37, + NIS 0.25 % v/v
[7] = 28 DA-A, rates g ai/ha: chlropyrifos 1120, chlorothalonil 2630, paclobutrazol 3.23, mepiquat-chloride 12.3, + NIS 0.25 % v/v
[8] = 28 DA-A, rates g ai/ha: chlropyrifos 3370, chlorothalonil 7900, paclobutrazol 9.7, mepiquat-chloride 37, + NIS 0.25 % v/v
[9] = 7 DA-A, rates g ai/ha: chlropyrifos 1120, chlorothalonil 2630, paclobutrazol 3.23, mepiquat-chloride 12.3, Isoxadifen 8, Napthalic anhydride 264, + NIS 0.25 % v/v
[10] = 7 DA-A, rates g ai/ha: chlropyrifos 3370, chlorothalonil 7900, paclobutrazol 9.7, mepiquat-chloride 37, Isoxadifen 16, Napthalic anhydride 527, + NIS 0.25 % v/v
[11] = 14 DA-A, rates g ai/ha: chlropyrifos 1120, chlorothalonil 2630, paclobutrazol 3.23, mepiquat-chloride 12.3, Isoxadifen 8, Napthalic anhydride 264, + NIS 0.25 % v/v
[12] = 14 DA-A, rates g ai/ha: chlropyrifos 3370, chlorothalonil 7900, paclobutrazol 9.7, mepiquat-chloride 37, Isoxadifen 16, Napthalic anhydride 527, + NIS 0.25 % v/v
[13] = 28 DA-A, rates g ai/ha: chlropyrifos 1120, chlorothalonil 2630, paclobutrazol 3.23, mepiquat-chloride 12.3, Isoxadifen 8, Napthalic anhydride 264, + NIS 0.25 % v/v
[14] = 28 DA-A, rates g ai/ha: chlropyrifos 3370, chlorothalonil 7900, paclobutrazol 9.7, mepiquat-chloride 37, Isoxadifen 16, Napthalic anhydride 527, + NIS 0.25 % v/v
[15] = rates g ai/ha: chlropyrifos 1120, chlorothalonil 2630, paclobutrazol 3.23, mepiquat-chloride 12.3, + NIS 0.25 % v/v
[16] = first-listed rate g ai/ha: chlropyrifos ###, chlorothalonil ###, paclobutrazol 3.2, mepiquat-chloride 12, + NIS 0.3 % v/v

CC(C)(C)[C@@H](O)[C@@H](Cc1ccc(Cl)cc1)n1cncn1 (racemic) [paclobutrazol]
Phytotoxicity Chlorosis (kale 'Red Russian' [1]; [3]): 1% | Phytotoxicity General (kale 'Red Russian' [1]; [3]): 10% | Phytotoxicity Stunting (kale 'Red Russian' [1]; [3]): 6% | Phytotoxicity Chlorosis (kale 'Red Russian' [1]; [4]): 0% | Phytotoxicity General (kale 'Red Russian' [1]; [4]): 9% | Phytotoxicity Stunting (kale 'Red Russian' [1]; [4]): 11% | Phytotoxicity Chlorosis (kale 'Red Russian' [1]; [5]): 10% | Phytotoxicity General (kale 'Red Russian' [1]; [5]): 3% | Phytotoxicity Stunting (kale 'Red Russian' [1]; [5]): 19% | Phytotoxicity Chlorosis (kale 'Red Russian' [1]; [6]): 16% | Phytotoxicity General (kale 'Red Russian' [1]; [6]): 6% | Phytotoxicity Stunting (kale 'Red Russian' [1]; [6]): 28% | Phytotoxicity Chlorosis (kale 'Red Russian' [1]; [7]): 3% | Phytotoxicity General (kale 'Red Russian' [1]; [7]): 3% | Phytotoxicity Stunting (kale 'Red Russian' [1]; [7]): 21% | Phytotoxicity Chlorosis (kale 'Red Russian' [1]; [8]): 0% | Phytotoxicity General (kale 'Red Russian' [1]; [8]): 4% | Phytotoxicity Stunting (kale 'Red Russian' [1]; [8]): 19% | Phytotoxicity Chlorosis (basil 'Genovese'; [9]): 8% | Phytotoxicity General (basil 'Genovese'; [9]): 3% | Phytotoxicity Stunting (basil 'Genovese'; [9]): 3% | Phytotoxicity Chlorosis (basil 'Genovese'; [10]): 5% | Phytotoxicity General (basil 'Genovese'; [10]): 3% | Phytotoxicity Stunting (basil 'Genovese'; [10]): 2% | Phytotoxicity Chlorosis (basil 'Genovese'; [11]): 5% | Phytotoxicity General (basil 'Genovese'; [11]): 0% | Phytotoxicity Stunting (basil 'Genovese'; [11]): 7% | Phytotoxicity Chlorosis (basil 'Genovese'; [12]): 7% | Phytotoxicity General (basil 'Genovese'; [12]): 0% | Phytotoxicity Stunting (basil 'Genovese'; [12]): 5% | Phytotoxicity Chlorosis (basil 'Genovese'; [13]): 3% | Phytotoxicity General (basil 'Genovese'; [13]): 5% | Phytotoxicity Stunting (basil 'Genovese'; [13]): 8% | Phytotoxicity Chlorosis (basil 'Genovese'; [14]): 7% | Phytotoxicity General (basil 'Genovese'; [14]): 2% | Phytotoxicity Stunting (basil 'Genovese'; [14]): 2% | Yield Fresh weight (kale ‘Red Russian’; [15]): 107.2 grams | Yield Fresh weight (kale ‘Red Russian’; rates g ai/ha: chlropyrifos 3370, chlorothalonil 7900, paclobutrazol 9.7, mepiquat-chloride 37, + NIS 0.25 % v/v): 108.3 grams | Alanine, Percent Increase over the Untreated Check (on a % dry matter basis) (kale 'Red Russian' [2]; [16]): −9 % check | Aspartic acid, Percent Increase over the Untreated Check (on a % dry matter basis) (kale 'Red Russian' [2]; [16]): −9 % check | Cysteine, Percent Increase over the Untreated Check (on a % dry matter basis) (kale 'Red Russian' [2]; [16]): −6 % check | Glutamic acid, Percent Increase over the Untreated Check (on a % dry matter basis) (kale 'Red Russian' [2]; [16]): −5 % check | Glycine, Percent Increase over the Untreated Check (on a % dry matter basis) (kale 'Red Russian' [2]; [16]): −12 % check | Iso-leucine, Percent Increase over the Untreated Check (on a % dry matter basis) (kale 'Red Russian' [2]; [16]): −6 % check | Leucine, Percent Increase over the Untreated Check (on a % dry matter basis) (kale 'Red Russian' [2]; [16]): −7 % check | Lysine, Percent Increase over the Untreated Check (on a % dry matter basis) (kale 'Red Russian' [2]; [16]): −8 % check | Methionine, Percent Increase over the Untreated Check (on a % dry matter basis) (kale 'Red Russian' [2]; [16]): −13 % check | Proline, Percent Increase over the Untreated Check (on a % dry matter basis) (kale 'Red Russian' [2]; [16]): −4 % check | Threonine, Percent Increase over the Untreated Check (on a % dry matter basis) (kale 'Red Russian' [2]; [16]): −9 % check | Total Amino acids, Percent Increase over the Untreated Check (on a % dry matter basis) (kale 'Red Russian' [2]; [16]): −8 % check | Total Protein, Percent Increase over the Untreated Check (on a % dry matter basis) (kale 'Red Russian' [2]; [16]): 0 % check | Valine, Percent Increase over the Untreated Check (on a % dry matter basis) (kale 'Red Russian' [2]; [16]): −6 % check | ADF, Percent Increase Over the Untreated Check (on a % dry matter basis) (kale 'Red Russian' [2]; [15]): 11 % check | Calcium, Percent Increase Over the Untreated Check (on a % dry matter basis) (kale 'Red Russian' [2]; [15]): 11 % check | Copper, Percent Increase Over the Untreated Check (on a % dry matter basis) (kale 'Red Russian' [2]; [15]): 12 % check | Iron, Percent Increase Over the Untreated Check (on a % dry matter basis) (kale 'Red Russian' [2]; [15]): −3 % check | Magnesium, Percent Increase Over the Untreated Check (on a % dry matter basis) (kale 'Red Russian' [2]; [15]): 8 % check | Manganese, Percent Increase Over the Untreated Check (on a % dry matter basis) (kale 'Red Russian' [2]; [15]): 10 % check

Reference: patent US20110053773A1, “METHODS OF IMPROVING NUTRITIONAL VALUE OF PLANTS” (UNIVERSITY OF TENNESSEE RESEARCH FOUNDATION, priority 2009, published 2011)
